Test results reported in publication PMC8955938, “c-Myc Protein Level Affected by Unsymmetrical Bisacridines Influences Apoptosis and Senescence Induced in HCT116 Colorectal and H460 Lung Cancer Cells” (International Journal of Molecular Sciences, 2022).
“And” between values parts separate entries of the source, which are not always exact repeats. Equal values may be shown once.

Tests used:
Format in all cases: cell-based, human
[1] = system: active caspase-3 in H460 cells; assay: Active caspase-3 flow cytometry, H460; conditions: H460, IC90 doses, 120 h
Procedure: Caspase-3 activity was determined using Alexa Fluor 647-conjugated anti-active caspase-3 antibody (BD Biosciences, San Diego, CA, USA) according to the manufacturer’s instructions. Briefly, HCT116 and H460 cells (1 × 10^6) were trypsinized, pelleted, washed twice with ice-cold PBS and fixed in Fixation Buffer for 20 min on ice. After fixation, cells were rinsed twice with Perm Wash Buffer, stained with Alexa Fluor 647-conjugated anti-active caspase-3 antibody for 30 min, rinsed with Perm Wash Buffer and analyzed by flow cytometry with FACS Accuri C6 (BD, San Jose, CA, USA).

HCT116 cells [2] = assay: Cell cycle analysis (PI, flow cytometry), HCT116; conditions: HCT116, IC90 doses; for cells with more than 4N DNA (polyploid): during the time of incubation (time not specified), control 10%; for cells in G2/M (4N DNA): during the treatment after accumulation at 24 h (time not specified)
Procedure: After drug treatment, trypsinized and floating cells (2 × 10^6) were pooled, washed twice with ice-cold PBS and fixed in 70% (v/v) ethanol overnight at −20 °C. Cells were stained with propidium iodide (PI) (BD Biosciences, San Jose, CA, USA) and monitored by FACS Accuri C6 (BD Biosciences, San Jose, CA, USA).

HCT116 cells [3] = assay: Mitochondrial transmembrane potential (JC-1), HCT116; conditions: HCT116, IC90 doses, 120 h
Procedure: Changes in the mitochondrial membrane potential (ΔΨm) were analyzed by flow cytometry using 5,5′,6,6′-tetrachloro-1,1′,3,3′-tetraethylbenzimidazolyl-carbocyanine iodide, JC-1 (BD Biosciences, San Jose, CA, USA) according to manufacturer’s specification. Briefly, after treatment, HCT116 and H460 cells (1 × 10^6) were trypsinized, pelleted, resuspended in media and stained with JC-1 for 15 min at 37 °C. After staining, cells were washed twice with assay buffer and analyzed by flow cytometry with FACS Accuri C6 (BD, San Jose, CA, USA). The loss of ΔΨm was monitored based on the decrease in JC-1 red fluorescence concurrent with the increase in green fluorescence.

[4] = system: KRAS gene expression in H460 cells; assay: RT-PCR KRAS expression in H460; conditions: H460, IC90 doses, with time of incubation up to 120 h
Procedure: HCT116, H460, CCD 841 CoN and MRC-5 cells after treatment with UAs were collected, washed twice with ice-cold PBS and resuspended in […] of PBS. mRNA was isolated using High Pure RNA Isolation Kit according to the manufacturer’s instructions (Roche, Basel, Switzerland). Briefly, cells were lysed in lysis-binding buffer and transferred to a filter tube. Contaminating DNA was removed by 15 min incubation of the filter tube with DNase I solution. The filter tube was washed once with buffer I and twice with buffer II, and after centrifugation, total RNA was eluted using the elution buffer. RNA concentration was determined by NanoDrop One (Thermo Scientific); 1 µg of RNA was reverse transcribed using Transcriptor First Strand cDNA Synthesis Kit according to the manufacturer’s instructions (Roche) in 20 µL of reaction containing 1 µg of RNA, […] anchored-oligo(dT)18Primer, 8 mM MgCl2, 20 U of Protector RNase Inhibitor, deoxynucleotide mix (1 mM each) and 22 U of Transcriptor Reverse Transcriptase. The reverse transcription reaction was carried out for 30 min at 55 °C and stopped by heating to 85 °C for 5 min and placing on ice. The cDNA solution was stored at −20 °C until use. Real-time polymerase chain reaction (PCR) was performed on 2 µL of cDNA using 0.2 µM forward and reverse primers on LightCycler® 480 using LightCycler® 480 SYBR Green I Master according to manufacturer’s instructions (Roche). Primers were designed using BLAST website. Their efficiency was checked, and they were ordered from Genomed (Warsaw, Poland). The sequences of primers were as follows: MYC set 1 forward primer, […]; MYC set 1 reverse primer, […]; MYC set 2 forward primer, […]; MYC set 2 reverse primer, […]; KRAS forward primer, […]; KRAS reverse primer, […]; reference gene, GAPDH forward primer ACCCACTCCTCCACCTTTG; and GAPDH reverse primer, CTCTTGTGCTCTTGCTGGG. Cycling conditions were as follows: 1 cycle for 7 min at 95 °C (preincubation), 45 cycles of amplification: 10 s at 95 °C (denaturation), 20 s at 62 °C (annealing), 30 s at 72 °C (extension), 1 cycle for obtaining melting curve and 1 cycle for 10 s at 40 °C (cooling). The results were standardized to the reference gene GADPH. The relative expression level of MYC and KRAS was quantified using comparative method […]. The results were obtained from three independent experiments, each of which was analyzed at least twice.

HCT116 cells [5] = assay: MTT cell growth inhibition assay, HCT116; conditions: HCT116, 72 h
Procedure: To assess cell viability, the MTT assay was used. HCT116, H460, CCD 841 CoN and MRC-5 cells (20,000/well and 50,000/well for cancer and normal cells, respectively) were seeded in 24-well plates, and the following UAs were added at concentrations up to 10 μM: C-2028, C-2041, C-2045 and C-2053. Stock solutions (10 mM) were prepared in sterile water, as well as dilutions, also in water. After 72 h, 3-(4, 5-dimethylthiazol-2-yl)-2,5-diphenyltetrazolium bromide (MTT; 800 μg/well) was added for 3 h, then the formazan crystals were dissolved in DMSO, and absorbance was read at 540 nm. Each point was conducted at least 4 times, and data are expressed relative to controls. The concentration of the drug required to inhibit cells growth by 50 (IC50), 80 (IC80) and 90% (IC90) compared to untreated control cells was determined from the curves plotting survival as a function of dose.

Row | SMILES | cells with active caspase-3 [1] [%] | Poli (polyploid cells) (HCT116 cells [2]; 24 h) [%] | cells in G1 (HCT116 cells [2]; 24 h) | cells in G2/M (HCT116 cells [2]; 24 h) [%] | cells in S (HCT116 cells [2]; 24 h) | cells in Sub-G1 (HCT116 cells [2]; 24 h) [%] | Poli (polyploid cells) (HCT116 cells [2]; 72 h) [%] | cells in G1 (HCT116 cells [2]; 72 h) [%] | cells in G2/M (HCT116 cells [2]; 72 h) [%] | cells in S (HCT116 cells [2]; 72 h) [%] | cells in Sub-G1 (HCT116 cells [2]; 72 h) [%] | Poli (polyploid cells) (HCT116 cells [2]; 120 h) [%] | cells in G1 (HCT116 cells [2]; 120 h) | cells in G2/M (HCT116 cells [2]; 120 h) [%] | cells in S (HCT116 cells [2]; 120 h) [%] | cells with more than 4N DNA (polyploid) (HCT116 cells [2]) | cells with decreased mitochondrial transmembrane potential (ΔΨm) (HCT116 cells [3]) | relative amount of KRAS mRNA [4] | IC50 (HCT116 cells [5]; Homo sapiens, HCT-116, 72 h) [nM] | IC90 (HCT116 cells [5]; Homo sapiens, HCT-116, 72 h) [nM] | other results
1 | CN(CCCNc1c2ccccc2nc2cccc([N+](=O)[O-])c12)CCCNc1ccc2ncn3c4ccccc4c(=O)c1c23 [Compound C-2028] | 44.9 | 5.73 ± 0.93 | 24.89 ± 3.90% | 45.89 ± 3.13 | 19.33 ± 1.58% | 3.37 ± 0.69 | 5.11 ± 1.54 | 28.63 ± 5.96 | 21.02 ± 4.86 | 7.67 ± 2.54 | 36.97 ± 8.93 | 5.73 ±2.33 | 25.39 ± 3.25% | 26.26 ± 4.90 | 4.95 ± 1.90 | 5% | 34.3% and 30% | remained almost at the same level | ≤ 16 | ≤ 50 | cells in Sub-G1 (HCT116 cells [2]; 120 h): 37.46 ± 9.35% and 37.5% and 30%; cells in G2/M (4N DNA) (HCT116 cells [2]): ~23%; IC50 (HCT116 cells [5]): 10 ± 1 nM; IC90 (HCT116 cells [5]): 44 ± 5 nM
2 | O=c1c2ccccc2n2cnc3ccc(NCCCN4CCN(CCCNc5c6ccccc6nc6cccc([N+](=O)[O-])c56)CC4)c1c32 [Compound C-2041] | 35.5 | 4.22 ± 2.00 | 28.75 ± 3.88% and 29% | 29.92 ± 4.56 | 25.97 ± 2.80% and 26% | 11.81 ± 1.94 | 4.47 ± 2.13 | 22.16 ± 5.06 | 14.29 ± 1.52 | 9.59 ± 2.24 | 48.83 ± 7.71 | 4.64 ± 2.56 | 13.63 ± 3.71% and 13.6% | 9.44 ± 3.88 | 3.25 ± 1.05 | 5% | around 70% | remained almost at the same level | ≤ 16 | ≤ 50 | cells with decreased mitochondrial transmembrane potential (ΔΨm) (HCT116 cells [3]; listed as C-1041): 63.0%; IC50 (HCT116 cells [5]): 8 ± 2 nM; IC90 (HCT116 cells [5]): 49 ± 5 nM
3 | Cc1ccc([N+](=O)[O-])c2c(NCCCN(C)CCCNc3ccc4ncn5c6ccc(O)cc6c(=O)c3c45)c3ccccc3nc12 [Compound C-2045] | 51.6 | 4.91 ± 2.33 | 24.61 ± 2.63% | 50.18 ± 2.39 | 16.33 ± 1.34% | 3.90 ± 0.83 | 12.20 ± 1.85 | 28.51 ± 4.31 | 34.06 ± 3.35 | 6.15 ± 0.70 | 17.38 ± 4.00 | 15.17 ± 3.74 | 22.11 ± 2.54% | 22.94 ± 2.48 | 4.56 ± 1.19 | around 15% | 30.9% and 30% | around 1.5 | 59 ± 8 | 455 ± 26 | cells in Sub-G1 (HCT116 cells [2]; 120 h): 35.40 ± 5.84% and 35.4% and 30%; cells in G2/M (4N DNA) (HCT116 cells [2]): ~23%
4 | Cc1ccc([N+](=O)[O-])c2c(NCCCN(C)CCCNc3ccc4ncn5c6ccccc6c(=O)c3c45)c3ccccc3nc12 [Compound C-2053] | 54.1 | 8.89 ± 1.38 | 22.34 ± 2.79% | 44.81 ± 7.10 | 19.19 ± 1.77% | 3.06 ± 1.09 | 11.02 ± 2.20 | 35.18 ± 2.63 | 36.32 ± 3.14 | 5.43 ± 1.59 | 10.45 ± 2.56 | 14.62 ± 4.62 | 30.06 ± 4.35% | 27.20 ± 4.16 | 4.10 ± 0.56 | around 15% | 23.5% | ~1.7 | 48 ± 14 | 195 ± 75 | cells in Sub-G1 (HCT116 cells [2]; 120 h): 23.64 ± 4.86% and 23.6%; cells in G2/M (4N DNA) (HCT116 cells [2]): ~23%
